The text below walks through data of patent US20110098296A1, “Thiazole And Oxazole Kinase Inhibitors” (priority 2007, published 2011).

As a reminder, the IC50 is the concentration at which inhibition is half-maximal.

Experiment [1] deals with T1, EGFR (Homo sapiens, UniProt P00533).
T1 construct: made in house; host or cells: baculovirus expression system
The experiment is described as follows: EGFR substrate phosphorylation assay (HTRF). The class given is biochemical. The procedure, abridged:
(§1)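 Baculovirus-expressed kinase (0.8 nM EGFR or 10 nM ErbB2 in enzyme mix) with Peptide C 0.8 μM and ATP 20 μM (substrate-mix levels), MOPS pH 7.5, MnCl2; 90 min, 20 °C, HTRF anti-phosphotyrosine. Method A adds 1 h enzyme–compound preincubation; B none. pIC50, final compound 0.00027–47.6 μM.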
A general note: In TR-FRET formats the signal depends on donor and acceptor labels being close together.

Experiment [2] concerns the target T2, ErbB2 (Homo sapiens, UniProt P04626).
T2 construct: made in house; host or cells: baculovirus expression system
Nature of the experiment: ErbB-2 substrate phosphorylation assay (HTRF). The class given is biochemical. In outline: as §1

In experiment [3] the test system is HN5 tumor cells. The experiment is described as follows: Method A: Methylene Blue Growth Inhibition Assay, HN5. The settings on record: Homo sapiens, 72 h, 3 days. The class given is cell-based. Here is the method: (§2) Human breast (BT474) and head and neck (HN5) tumor cells were cultured in low glucose DMEM (Life Technologies 12320-032) containing 10% fetal bovine serum (FBS). Human colon tumor cells (Colo205) were cultured in DMEM (Invitrogen, 10564) containing 10% FBS. The SV40 transformed human mammary epithelial cell line HB4a was transfected with either human H-ras cDNA (HB4a r4.2) or the human c-ErbB2 cDNA (HB4a c5.2). The HB4a clones were cultured in RPMI containing 10% FBS, insulin (5 g/mL), hydrocortisone (5 g/mL), supplemented with the selection agent hygromycin B (50 g/mL). All lines were grown in a humidified incubator at 37° C. in 95% air, 5% CO2. Cells were harvested using trypsin/EDTA, counted using a haemocytometer, and plated in 100 μL of the appropriate media, at the following densities, in a 96-well tissue culture plate (Falcon 3075): BT474 10,000 cells/well, HN5 3,000 cells/well. The next day, compounds were diluted in DMEM containing […] gentamicin, at twice the final required concentration, from 10 mM stock solutions in DMSO. 100 μl/well of these dilutions were added to the 100 μL of media currently on the cell plates. Medium containing 0.6% DMSO was added to control wells. Compounds diluted in DMEM were added to all cell lines. The final concentration of DMSO in all wells was 0.3%. Cells were returned to the incubator (37° C., […]) for 3 days. Medium was then removed by aspiration. Cell biomass was estimated by staining cells with 90 μL/well methylene blue (Sigma M9140, 0.5% in 1:1 EtOH:H2O), and incubation at room temperature for at least 30 minutes. Stain was removed, and the plates rinsed by immersion in deionized H2O and air-dried. To release stain from the cells 100 μL of solubilization solution were added (1% N-lauroyl sarcosine, sodium salt, Sigma L5125, in PBS), and plates were shaken gently for about 30 minutes. Optical density at 620 nm was measured on a microplate reader. Percent inhibition of cell growth was calculated relative to vehicle-treated control wells. Concentration of compound that inhibits 50% of control cell growth (IC50) was interpolated using nonlinear regression (Levenberg-Marquardt) and the equation,
(§3) y=Vmax*(1−(x/(K+x)))+Y2, where “K” was equal to the IC50.

The subject of experiment [4] is BT474 tumor cells. Nature of the experiment: Method A: Methylene Blue Growth Inhibition Assay, BT474. The class given is cell-based. The settings on record: Homo sapiens, BT-474, 72 h, 3 days. Here is the method: as §2, §3
Experiment [5] deals with Colo205 tumor cells. The experiment is described as follows: Method A: Methylene Blue Growth Inhibition Assay, Colo205. The class given is cell-based. As to conditions: Homo sapiens, COLO 205, 72 h, 3 days. Here is the method: as §2, §3
Where [6] appears, read: Method (A): Enzyme Mix incubated with compound at 20° C. for 1 hr, reaction started by adding Substrate Mix.
Where [7] appears, read: Method (B): Substrate Mix added to compound first, reaction started by adding Enzyme Mix.

The structures appear in SMILES notation.

T1 sequence (P00533 25-1210): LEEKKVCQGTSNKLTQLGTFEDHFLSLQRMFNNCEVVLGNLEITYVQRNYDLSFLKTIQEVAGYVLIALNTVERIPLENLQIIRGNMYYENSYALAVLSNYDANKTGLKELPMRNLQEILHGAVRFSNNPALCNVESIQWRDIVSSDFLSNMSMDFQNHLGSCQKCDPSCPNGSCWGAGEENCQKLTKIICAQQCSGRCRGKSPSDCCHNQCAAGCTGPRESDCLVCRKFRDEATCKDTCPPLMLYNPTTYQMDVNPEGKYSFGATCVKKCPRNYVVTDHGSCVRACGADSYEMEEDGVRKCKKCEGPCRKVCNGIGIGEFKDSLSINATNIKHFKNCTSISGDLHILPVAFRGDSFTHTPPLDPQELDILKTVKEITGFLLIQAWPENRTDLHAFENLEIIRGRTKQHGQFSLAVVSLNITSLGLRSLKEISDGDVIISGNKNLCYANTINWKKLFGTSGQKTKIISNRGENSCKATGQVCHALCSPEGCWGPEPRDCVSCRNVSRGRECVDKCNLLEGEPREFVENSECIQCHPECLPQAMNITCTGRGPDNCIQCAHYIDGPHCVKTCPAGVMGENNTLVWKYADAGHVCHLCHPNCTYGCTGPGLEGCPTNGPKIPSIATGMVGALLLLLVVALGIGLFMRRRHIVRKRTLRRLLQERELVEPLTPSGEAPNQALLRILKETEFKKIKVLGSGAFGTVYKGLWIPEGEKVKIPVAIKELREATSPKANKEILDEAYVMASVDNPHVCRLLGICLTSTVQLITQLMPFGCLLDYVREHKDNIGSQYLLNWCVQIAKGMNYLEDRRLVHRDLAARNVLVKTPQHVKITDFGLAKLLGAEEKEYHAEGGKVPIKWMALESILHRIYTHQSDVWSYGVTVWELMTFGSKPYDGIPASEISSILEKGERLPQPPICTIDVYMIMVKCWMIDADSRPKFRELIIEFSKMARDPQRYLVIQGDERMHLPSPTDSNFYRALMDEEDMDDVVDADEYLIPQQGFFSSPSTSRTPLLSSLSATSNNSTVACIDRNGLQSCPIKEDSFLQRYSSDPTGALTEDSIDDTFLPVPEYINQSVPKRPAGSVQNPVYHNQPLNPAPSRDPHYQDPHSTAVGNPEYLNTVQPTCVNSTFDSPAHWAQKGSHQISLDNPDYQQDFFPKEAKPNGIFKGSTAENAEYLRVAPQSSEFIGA
T2 sequence (P04626 23-1255): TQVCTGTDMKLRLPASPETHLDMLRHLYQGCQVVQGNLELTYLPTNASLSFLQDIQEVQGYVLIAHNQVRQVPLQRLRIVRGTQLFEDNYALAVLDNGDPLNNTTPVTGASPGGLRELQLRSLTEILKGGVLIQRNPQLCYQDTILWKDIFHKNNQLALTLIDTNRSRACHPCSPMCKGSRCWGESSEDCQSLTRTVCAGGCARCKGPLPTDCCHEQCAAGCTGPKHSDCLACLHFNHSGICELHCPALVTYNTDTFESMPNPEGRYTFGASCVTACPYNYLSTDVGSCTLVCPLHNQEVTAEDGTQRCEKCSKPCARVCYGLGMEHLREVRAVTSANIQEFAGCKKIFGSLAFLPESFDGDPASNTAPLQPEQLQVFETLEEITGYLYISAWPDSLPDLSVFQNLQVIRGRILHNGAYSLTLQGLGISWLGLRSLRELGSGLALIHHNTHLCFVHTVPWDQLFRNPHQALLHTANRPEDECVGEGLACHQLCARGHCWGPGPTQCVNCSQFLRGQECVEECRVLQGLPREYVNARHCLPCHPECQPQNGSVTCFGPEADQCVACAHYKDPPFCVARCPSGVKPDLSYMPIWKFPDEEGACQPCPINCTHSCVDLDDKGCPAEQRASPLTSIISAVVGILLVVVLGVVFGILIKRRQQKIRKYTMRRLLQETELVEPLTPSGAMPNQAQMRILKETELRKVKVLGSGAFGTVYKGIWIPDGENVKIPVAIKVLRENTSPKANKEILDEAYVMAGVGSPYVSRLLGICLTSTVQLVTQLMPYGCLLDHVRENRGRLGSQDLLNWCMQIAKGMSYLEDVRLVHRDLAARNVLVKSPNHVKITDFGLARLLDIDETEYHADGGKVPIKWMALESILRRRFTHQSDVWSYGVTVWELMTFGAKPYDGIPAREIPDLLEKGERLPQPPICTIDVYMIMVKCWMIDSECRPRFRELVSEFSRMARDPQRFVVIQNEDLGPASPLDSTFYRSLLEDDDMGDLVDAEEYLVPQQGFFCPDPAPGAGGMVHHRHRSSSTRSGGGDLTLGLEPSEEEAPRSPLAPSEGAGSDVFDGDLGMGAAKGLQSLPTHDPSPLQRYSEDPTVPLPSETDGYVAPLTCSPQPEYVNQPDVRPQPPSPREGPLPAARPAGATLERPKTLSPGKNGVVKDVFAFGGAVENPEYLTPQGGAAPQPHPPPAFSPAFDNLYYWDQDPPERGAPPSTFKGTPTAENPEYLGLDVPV

For the compound `CN(C)CCOc1ccc(Nc2nccc(-c3sc(N)nc3-c3cccc(OCc4ccccc4)c3)n2)cc1Cl` [Example 70, 4-(2-Amino-4-{3-[(phenylmethyl)oxy]phenyl}-1,3-thiazol-5-yl)-N-(3-chloro-4-{[2-(dimethylamino)ethyl]oxy}phenyl)-2-pyrimidinamine], the IC50 was under 100 nM in experiment [1] (setting [6]); under 100 nM in experiment [2] (setting [6]); 100 to 1000 nM in experiment [3]; 100 to 1000 nM in experiment [4]; 100 to 1000 nM in experiment [5].
As for `COCCOc1ccc(Nc2nccc(-c3sc(N)nc3-c3cccc(NC(=O)c4cc(F)ccc4F)c3)n2)cc1F` [Example 58, N-[3-(2-Amino-5-{2-[(3-fluoro-4-{[2-(methyloxy)ethy]oxy}phenyl)amino]-4-pyrimidinyl}-1,3-thiazol-4-yl)phenyl]-2,5-difluorobenzamide], the IC50 in experiment [1] (setting [6]) was under 100 nM; in experiment [2] (setting [6]), under 100 nM; in experiment [3], under 100 nM; in experiment [4], under 100 nM; in experiment [5], 100 to 1000 nM.
As for `CN(C)CCCNc1ccc(Nc2nccc(-c3sc(N)nc3-c3cccc(NC(=O)c4cccn4C)c3)n2)cc1F` [Example 65, N-[3-(2-Amino-5-{2-[(4-{[3-(dimethylamino)propyl]amino}-3-fluorophenyl)amino]-4-pyrimidinyl}-1,3-thiazol-4-yl)phenyl]-1-methyl-1H-pyrrole-2-carboxamide], the IC50 in experiment [1] (setting [6]) was under 100 nM; in experiment [2] (setting [6]), under 100 nM; in experiment [3] it was under 100 nM; in experiment [4], under 100 nM; in experiment [5] it was 100 to 1000 nM.
For the compound `CN(C)CCCNc1ccc(Nc2nccc(-c3sc(N)nc3-c3cccc(NC(=O)C4CCCCC4)c3)n2)cc1F` [Example 60], the IC50 in experiment [1] (setting [6]) was under 100 nM; in experiment [2] (setting [6]), under 100 nM; in experiment [3] it was under 100 nM; in experiment [4] it was 100 to 1000 nM; in experiment [5], 100 to 1000 nM.
With `COc1ccc(Nc2nccc(-c3sc(NCCN4CCOCC4)nc3-c3cccc(NC(=O)c4cc(F)ccc4F)c3)n2)cc1F` [Example 53, 2,5-Difluoro-N-[3-(5-(2-{[3-fluoro-4-(methyloxy)phenyl]amino}-4-pyrimidinyl)-2-{[2-(4-morpholinyl)ethyl]amino}-1,3-thiazol-4-yl)phenyl]benzamide], the IC50 is under 100 nM in experiment [1] (setting [6]); under 100 nM in experiment [2] (setting [6]); under 100 nM in experiment [3]; under 100 nM in experiment [4]; 100 to 1000 nM in experiment [5].
Regarding `COCCNc1nc(-c2cccc(NC(=O)c3cc(F)ccc3F)c2)c(-c2ccnc(Nc3ccc(OC)c(F)c3)n2)s1` [Example 52, 2,5-Difluoro-N-[3-(5-(2-{[3-fluoro-4-(methyloxy)phenyl]amino}-4-pyrimidinyl)-2-{[2-(methyloxy)ethyl]amino}-1,3-thiazol-4-yl)phenyl]benzamide], the IC50 was under 100 nM in experiment [1] (setting [6]); under 100 nM in experiment [2] (setting [6]); 100 to 1000 nM in experiment [3]; under 100 nM in experiment [4]; 100 to 1000 nM in experiment [5].
Regarding `O=C(Nc1cccc(-c2nc(NCCN3CCOCC3)sc2-c2ccnc(Nc3ccc4c(c3)CNCC4)n2)c1)c1c(F)cccc1F` [Example 1, 2,6-Difluoro-N-(3-{2-{[2-(4-morpholinyl)ethyl]amino}-5-[2-(1,2,3,4-tetrahydro-7-isoquinolinylamino)-4-pyrimidinyl]-1,3-thiazol-4-yl}phenyl)benzamide], the IC50 in experiment [1] (setting [6]) was under 100 nM; in experiment [2] (setting [6]), under 100 nM; in experiment [3], under 100 nM; in experiment [4], under 100 nM; in experiment [5], 100 to 1000 nM.
Regarding `Nc1nc(-c2cccc(NC(=O)C3CCCCC3)c2)c(-c2ccnc(Nc3cccc(-c4cnco4)c3)n2)s1` [Example 62, N-{3-[2-Amino-5-(2-{[3-(1,3-oxazol-5-yl)phenyl]amino}-4-pyrimidinyl)-1,3-thiazol-4-yl]phenyl}cyclohexanecarboxamide], the IC50 in experiment [1] (setting [6]) is under 100 nM; in experiment [2] (setting [6]), under 100 nM; in experiment [3] it was under 100 nM; in experiment [4], 100 to 1000 nM; in experiment [5], 100 to 1000 nM.
Turning to `COc1ccc(Nc2nccc(-c3sc(N)nc3-c3cccc(NC(=O)c4cc(F)ccc4F)c3)n2)cc1F` [Example 50, N-{3-[2-Amino-5-(2-{[3-fluoro-4-(methyloxy)phenyl]amino}-4-pyrimidinyl)-1,3-thiazol-4-yl]phenyl}-2,5-difluorobenzamide], the IC50 in experiment [1] (setting [6]) is under 100 nM; in experiment [2] (setting [6]) it was under 100 nM; in experiment [3], under 100 nM; in experiment [4], 100 to 1000 nM; in experiment [5], over 1000 nM.
Consider `CNc1nc(-c2cccc(NC(=O)c3cc(F)ccc3F)c2)c(-c2ccnc(Nc3ccc(OC)c(F)c3)n2)s1` [Example 51, 2,5-Difluoro-N-{3-[5-(2-{[3-fluoro-4-(methyloxy)phenyl]amino}-4-pyrimidinyl)-2-(methylamino)-1,3-thiazol-4-yl]phenyl}benzamide], for which the IC50 was under 100 nM in experiment [1] (setting [6]); under 100 nM in experiment [2] (setting [6]); over 1000 nM in experiment [3]; 100 to 1000 nM in experiment [4]; over 1000 nM in experiment [5].
In the case of `COCCOc1ccc(Nc2nccc(-c3sc(N)nc3-c3cccc(NC(=O)c4c(F)cccc4F)c3)n2)cc1F` [Example 3], the IC50 in experiment [1] (setting [6]) is under 100 nM; in experiment [2] (setting [6]), under 100 nM; in experiment [3], under 100 nM; in experiment [4] it was under 100 nM; in experiment [5], 100 to 1000 nM.
`COc1ccc(Nc2nccc(-c3scnc3-c3cccc(NC(=O)c4c(F)cccc4F)c3)n2)cc1F` [Example 87, 2,6-Difluoro-N-{3-[5-(2-{[3-fluoro-4-(methyloxy)phenyl]amino}-4-pyrimidinyl)-1,3-thiazol-4-yl]phenyl}benzamide]: the IC50 was 100 to 1000 nM in experiment [1] (setting [7]); 100 to 1000 nM in experiment [2] (setting [7]); under 100 nM in experiment [3]; 100 to 1000 nM in experiment [4]; over 1000 nM in experiment [5].
For `Nc1nc(-c2cccc(NC(=O)c3cc(F)ccc3F)c2)c(-c2ccnc(Nc3ccc4c(c3)CNCC4)n2)s1` [Example 57], the IC50 in experiment [1] (setting [6]) is under 100 nM; in experiment [2] (setting [6]), under 100 nM; in experiment [3] it was under 100 nM; in experiment [4], under 100 nM; in experiment [5] it was 100 to 1000 nM.
For `Nc1nc(-c2cccc(OCc3ccccc3)c2)c(-c2ccnc(Nc3ccc4c(c3)CNCC4)n2)s1` [Example 71, N-[4-(2-Amino-4-{3-[(phenylmethyl)oxy]phenyl}-1,3-thiazol-5-yl)-2-pyrimidinyl]-1,2,3,4-tetrahydro-7-isoquinolinamine], the IC50 in experiment [1] (setting [6]) was under 100 nM; in experiment [2] (setting [6]) it was under 100 nM; in experiment [3], 100 to 1000 nM; in experiment [4] it was 100 to 1000 nM; in experiment [5], over 1000 nM.
For `Nc1nc(-c2cccc(NC(=O)c3c(F)cccc3F)c2)c(-c2ccnc(Nc3cccc(-c4cnco4)c3)n2)s1` [Example 14, N-{3-[2-Amino-5-(2-{[3-(1,3-oxazol-5-yl)phenyl]amino}-4-pyrimidinyl)-1,3-thiazol-4-yl]phenyl}-2,6-difluorobenzamide], the half-maximal inhibitory concentration (IC50) in experiment [1] (setting [6]), in experiment [2] (setting [6]), in experiment [3], in experiment [4] and in experiment [5] was under 100 nM in each case.
As for `Nc1nc(-c2cccc(NC(=O)c3cc(F)ccc3F)c2)c(-c2ccnc(Nc3cccc(-c4cnco4)c3)n2)s1` [Example 54], the IC50 in experiment [1] (setting [6]) was under 100 nM; in experiment [2] (setting [6]), under 100 nM; in experiment [3], under 100 nM; in experiment [4], under 100 nM; in experiment [5], over 1000 nM.
